Patent publication US12091426B2, “Bifunctional degraders of hematopoietic progenitor kinase and therapeutic uses thereof” (Nurix Therapeutics, Inc., priority 2021, dated 2024)

Target: T1, HPK1 (Homo sapiens, UniProt Q92918)
T1 construct: A HiBiT tag was introduced by CRISPR on the N terminus of HPK1 in Jurkat cells; host or cells: Jurkat cells (ATCC TIB-152), monoclonal line with CRISPR knock-in of HiBiT at the endogenous HPK1 locus
Assay: HPK1 Cellular HiBit Degradation Assay
Type: cell-based
Conditions: HiBiT HPK1 Jurkat cells, 24 hrs; for DC50: concentration at which 50% of HPK1 was remaining, read-out: DC50 Category; for Dmax: Jurkat, maximum degradation vs DMSO vehicle control, read-out: Dmax Category
How it was run: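 HiBiT-HPK1 Jurkat (CRISPR, N-term tag), 3×10^4 cells/well, RPMI 1640 + 10% FBS; CTMs 10 uM–0.1 nM, 11 pts; 24 hrs, 37° C/5% CO2; lytic HiBiT luminescence; % remaining vs DMSO, parental background subtracted; 4-parameter fit → DC50, Dmax.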

T1 sequence (Q92918 whole entry): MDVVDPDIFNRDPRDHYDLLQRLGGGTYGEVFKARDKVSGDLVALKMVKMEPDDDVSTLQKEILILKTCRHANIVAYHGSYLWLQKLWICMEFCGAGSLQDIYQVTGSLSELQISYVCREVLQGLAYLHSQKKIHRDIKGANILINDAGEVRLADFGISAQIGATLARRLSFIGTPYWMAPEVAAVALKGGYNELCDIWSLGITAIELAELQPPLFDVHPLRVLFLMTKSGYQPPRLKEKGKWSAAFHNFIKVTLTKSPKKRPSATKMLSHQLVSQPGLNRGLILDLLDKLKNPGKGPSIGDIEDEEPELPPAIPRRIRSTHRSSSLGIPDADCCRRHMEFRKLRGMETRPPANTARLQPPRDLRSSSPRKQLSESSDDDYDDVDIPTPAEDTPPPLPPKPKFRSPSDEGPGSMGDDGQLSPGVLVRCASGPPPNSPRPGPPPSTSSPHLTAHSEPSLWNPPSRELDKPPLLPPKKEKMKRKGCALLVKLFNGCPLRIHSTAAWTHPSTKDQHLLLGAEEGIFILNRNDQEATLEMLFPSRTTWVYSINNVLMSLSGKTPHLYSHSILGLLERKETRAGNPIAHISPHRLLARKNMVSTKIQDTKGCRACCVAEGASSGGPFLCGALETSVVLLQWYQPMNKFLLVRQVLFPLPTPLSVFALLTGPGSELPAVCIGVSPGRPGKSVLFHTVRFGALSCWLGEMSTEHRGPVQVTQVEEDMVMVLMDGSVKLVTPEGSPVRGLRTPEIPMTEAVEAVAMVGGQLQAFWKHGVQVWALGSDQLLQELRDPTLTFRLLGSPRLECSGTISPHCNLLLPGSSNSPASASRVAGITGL

| Compound | DC50 [nM] | Dmax [%] |
| --- | --- | --- |
| CC(C)n1cnc2cc(-c3ccc4c(c3)N([C@H]3C[C@@H](N5CCCCC5)C3)C(=O)C43CCN(C(=O)[C@H]4CC[C@H](C(=O)N5CCC(N(C)c6ccc(C7CCC(=O)NC7=O)cn6)CC5)CC4)CC3)nc(Nc3ccncc3F)c21 (mixture of isomers) [Example 139, (3RS)-3-{6-[methyl({1-[(1R,4R)-4-[(6-{4-[(3-Fluoropyridin-4-yl)amino]-3-(propan-2-yl)-3H-imidazo[4,5-c]pyridin-6-yl}-2-oxo-1-[(1S,3S)-3-(piperidin-1-yl)cyclobutyl]-1,2-dihydrospiro[indole-3,4′-piperidin]-1′-yl)carbonyl]cyclohexanecarbonyl]piperidin-4-yl})amino]pyridin-3-yl}piperidine-2,6-dione] | < 100 | 70 to 85 |
| Cc1cc(F)c(Nc2nc(-c3ccc4c(c3)N([C@H]3C[C@@H](N5CCCCC5)C3)C(=O)C43CCN(C(=O)C4=CCN(C(=O)[C@H]5CC[C@H](Nc6cccc7c6C(=O)N(C6CCC(=O)NC6=O)C7=O)CC5)CC4)CC3)cc3ncn(C(C)C)c23)cc1C(=O)NC(C)C (mixture of isomers) [Example 36, 4-fluoro-2-methyl-5-{[6-(2-oxo-1′-{1-[(1R,4R)-4-({2-[(3RS)-2,6-dioxopiperidin-3-yl]-1,3-dioxo-2,3-dihydro-1H-isoindol-4-yl}amino)cyclohexanecarbonyl]-1,2,3,6-tetrahydropyridine-4-carbonyl}-1-[(1S,3S)-3-(piperidin-1-yl)cyclobutyl]-1,2-dihydrospiro[indole-3,4′-piperidin]-6-yl)-3-(propan-2-yl)-3H-imidazo[4,5-c]pyridin-4-yl]amino}-N-(propan-2-yl)benzamide] | 100 to 500 | 50 to 70 |
| CC(C)n1cnc2cc(-c3ccc4c(c3)N([C@H]3C[C@@H](N5CCCCC5)C3)C(=O)C43CCN(C(=O)C4CCN(C(=O)C5CCN(c6ncc(C7CCC(=O)NC7=O)cn6)CC5)CC4)CC3)nc(Nc3ccncc3F)c21 (mixture of isomers) [Example 91, (3RS)-3-[2-(4-{4-[(6-{4-[(3-Fluoropyridin-4-yl)amino]-3-(propan-2-yl)-3H-imidazo[4,5-c]pyridin-6-yl}-2-oxo-1-[(1S,3S)-3-(piperidin-1-yl)cyclobutyl]-1,2-dihydrospiro[indole-3,4′-piperidin]-1′-yl)carbonyl]piperidine-1-carbonyl}piperidin-1-yl)pyrimidin-5-yl]piperidine-2,6-dione] | 100 to 500 | 50 to 70 |
| CC(C)n1cnc2cc(-c3ccc4c(c3)N([C@H]3C[C@@H](N5CCCCC5)C3)C(=O)C43CCN(C(=O)[C@H]4CC[C@H](C(=O)N5CCC(Nc6ccc(C7CCC(=O)NC7=O)cn6)CC5)CC4)CC3)nc(Nc3ccncc3F)c21 (mixture of isomers) [Example 27] | < 100 | 50 to 70 |
| CC(C)n1cnc2cc(-c3ccc4c(c3)N([C@H]3C[C@@H](N5CCCCC5)C3)C(=O)C43CCN(C(=O)C4CCN(C(=O)C5CCN(c6ccc(C(=O)NC7CCC(=O)NC7=O)nc6)CC5)CC4)CC3)nc(Nc3ccccc3F)c21 (mixture of isomers) [Example 83, N-[(3RS)-2,6-dioxopiperidin-3-yl]-5-(4-{4-[(6-{4-[(2-fluorophenyl)amino]-3-(propan-2-yl)-3H-imidazo[4,5-c]pyridin-6-yl}-2-oxo-1-[(1S,3S)-3-(piperidin-1-yl)cyclobutyl]-1,2-dihydrospiro[indole-3,4′-piperidin]-1′-yl)carbonyl]piperidine-1-carbonyl}piperidin-1-yl)pyridine-2-carboxamide] | 100 to 500 | 50 to 70 |
| CC(C)n1cnc2cc(-c3ccc4c(c3)N([C@H]3C[C@@H](N5C6COCC5C6)C3)C(=O)C43CCN(C(=O)C4(C)CCN(C(=O)C5CCN(c6ccc(C7CCC(=O)NC7=O)cc6)CC5)CC4)CC3)nc(NC3CC3)c21 (mixture of isomers) [Example 195, (3RS)-3-(4-{4-[4-({6-[4-(cyclopropylamino)-3-(propan-2-yl)-3H-imidazo[4,5-c]pyridin-6-yl]-2-oxo-1-[(1S,3S)-3-{3-oxa-6-Azabicyclo[3.1.1]heptan-6-yl}cyclobutyl]-1,2-dihydrospiro[indole-3,4′-piperidin]-1′-yl}carbonyl)-4-methylpiperidine-1-carbonyl]piperidin-1-yl}phenyl)piperidine-2,6-dione] | 500 to 1000 | 50 to 70 |

Next, values leading:

| DC50 [nM] | Dmax [%] | Compound |
| --- | --- | --- |
| < 100 | 70 to 85 | CC(C)n1cnc2cc(-c3ccc4c(c3)N([C@H]3C[C@@H](N5CCCCC5)C3)C(=O)C43CCN(C(=O)[C@H]4CC[C@@H](C(=O)N5CCC(Nc6ccc(C7CCC(=O)NC7=O)cn6)CC5)CC4)CC3)nc(Nc3ccccc3F)c21 (mixture of isomers) [Example 30, (3RS)-3-[6-({1-[(1S,4S)-4-[(6-{4-[(2-fluorophenyl)amino]-3-(propan-2-yl)-3H-imidazo[4,5-c]pyridin-6-yl}-2-oxo-1-[(1S,3S)-3-(piperidin-1-yl)cyclobutyl]-1,2-dihydrospiro[indole-3,4′-piperidin]-1′-yl)carbonyl]cyclohexanecarbonyl]piperidin-4-yl}amino)pyridin-3-yl]piperidine-2,6-dione] |
| 100 to 500 | 70 to 85 | CC(C)n1cnc2cc(-c3ccc4c(c3)N([C@H]3C[C@@H](N5CCCCC5)C3)C(=O)C43CCN(C(=O)c4ccc(CN5CCN(C(=O)C6CCN(c7ccc(C8CCC(=O)NC8=O)cn7)CC6)CC5)cc4)CC3)nc(NC3CC3)c21 (mixture of isomers) [Example 293, (3RS)-3-{6-[4-(4-{[4-({6-[4-(cyclopropylamino)-3-(propan-2-yl)-3H-imidazo[4,5-c]pyridin-6-yl]-2-oxo-1-[(1S,3S)-3-(piperidin-1-yl)cyclobutyl]-1,2-dihydrospiro[indole-3,4′-piperidin]-1′-yl}carbonyl)phenyl]methyl}piperazine-1-carbonyl)piperidin-1-yl]pyridin-3-yl}piperidine-2,6-dione] |
| < 100 | > 85 | CC(C)n1cnc2cc(-c3ccc4c(c3)N([C@H]3C[C@@H](N5CCCCC5)C3)C(=O)C43CCN(C(=O)C4(C)CCN(C(=O)C5CCN(c6ccc(C7CCC(=O)NC7=O)cn6)CC5)CC4)CC3)nc(OC3CC3)c21 (stereo partly drawn) [Example 178, 3-(6-{4-[4-({6-[4-cyclopropoxy-3-(propan-2-yl)-3H-imidazo[4,5-c]pyridin-6-yl]-2-oxo-1-[(1S,3S)-3-(piperidin-1-yl)cyclobutyl]-1,2-dihydrospiro[indole-3,4′-piperidin]-1′-yl}carbonyl)-4-methylpiperidine-1-carbonyl]piperidin-1-yl}pyridin-3-yl)piperidine-2,6-dione] |
| < 100 | 70 to 85 | CC(C)n1cnc2cc(-c3ccc4c(c3)N([C@H]3C[C@@H](N5CCCCC5)C3)C(=O)C43CCN(C(=O)C4(C)CCN(C(=O)[C@H]5CC[C@H](Oc6ccc(C7CCC(=O)NC7=O)cn6)CC5)CC4)CC3)nc(NC3CC3)c21 (mixture of isomers) [Example 104, (3RS)-3-(6-{[(1R,4R)-4-[4-({6-[4-(cyclopropylamino)-3-(propan-2-yl)-3H-imidazo[4,5-c]pyridin-6-yl]-2-oxo-1-[(1S,3S)-3-(piperidin-1-yl)cyclobutyl]-1,2-dihydrospiro[indole-3,4′-piperidin]-1′-yl}carbonyl)-4-methylpiperidine-1-carbonyl]cyclohexyl]oxy}pyridin-3-yl)piperidine-2,6-dione] |
| < 100 | 70 to 85 | CC(C)n1cnc2cc(-c3ccc4c(c3)N([C@H]3C[C@@H](N5CCCCC5)C3)C(=O)C43CCN(C(=O)C4CCN(C(=O)[C@H]5CC[C@H](Nc6ccc(C7CCC(=O)NC7=O)cc6)CC5)CC4)CC3)nc(Nc3ccccc3F)c21 (mixture of isomers) [Example 54, (3RS)-3-(4-{[(1R,4R)-4-{4-[(6-{4-[(2-fluorophenyl)amino]-3-(propan-2-yl)-3H-imidazo[4,5-c]pyridin-6-yl}-2-oxo-1-[(1S,3S)-3-(piperidin-1-yl)cyclobutyl]-1,2-dihydrospiro[indole-3,4′-piperidin]-1′-yl)carbonyl]piperidine-1-carbonyl}cyclohexyl]amino}phenyl)piperidine-2,6-dione] |
| < 100 | 70 to 85 | CC(C)n1cnc2cc(-c3ccc4c(c3)N([C@H]3C[C@@H](N5CCCCC5)C3)C(=O)C43CCN(C(=O)C4CCN(C(=O)C5CCN(c6ccc(C7CCC(=O)NC7=O)nc6)CC5)CC4)CC3)nc(Nc3ccccc3F)c21 (stereo partly drawn) [Example 85, 3-[5-(4-{4-[(6-{4-[(2-fluorophenyl)amino]-3-(propan-2-yl)-3H-imidazo[4,5-c]pyridin-6-yl}-2-oxo-1-[(1S,3S)-3-(piperidin-1-yl)cyclobutyl]-1,2-dihydrospiro[indole-3,4′-piperidin]-1′-yl)carbonyl]piperidine-1-carbonyl}piperidin-1-yl)pyridin-2-yl]piperidine-2,6-dione] |
| < 100 | 70 to 85 | CC(C)n1cnc2cc(-c3ccc4c(c3)N([C@H]3C[C@@H](N5CCCCC5)C3)C(=O)C43CCN(C(=O)C4(C)CCN(C(=O)C5CCN(c6ccc(C7CCC(=O)NC7=O)cn6)CC5)CC4)CC3)nc(NC3CCOCC3)c21 (mixture of isomers) [Example 214, (3RS)-3-[6-(4-{4-methyl-4-[(6-{4-[(oxan-4-yl)amino]-3-(propan-2-yl)-3H-imidazo[4,5-c]pyridin-6-yl}-2-oxo-1-[(1S,3S)-3-(piperidin-1-yl)cyclobutyl]-1,2-dihydrospiro[indole-3,4′-piperidin]-1′-yl)carbonyl]piperidine-1-carbonyl}piperidin-1-yl)pyridin-3-yl]piperidine-2,6-dione] |
